Experimental findings from patent US9249097B2, “3-aminocarbazole compound, pharmaceutical composition containing it and preparation method therefor” (AZIENDE CHIM. RIUN. ANG. FRANC. A.C.R.A.F. S.p.A., priority 2008, dated 2016) are described below.

A short description of data set [1]: Metabolic stability in human hepatic microsomes. Particulars: human, microsomes, 1 h, 1 μM, pH 7.4. The procedure: (§1) This test allows evaluation of the metabolic stability of the compounds of the invention and of the comparative compounds in rats and in man.
(§2) The compounds to be analysed, at a final concentration of 0 and 1 μM, were placed in a suspension containing the pool of microsomes at a final concentration of 0.5 mg/mL in a final volume of 200 μL, in 96-well plates. The test was standardized with phosphate buffer (75 mM, pH 7.4) and with the NADPH regenerating system (MgCl2: 3.3 mM; G6P: 3.3 mM; G6PD: 0.4 U/mL; NADP+: 1.3 mM). […] The samples were incubated at 37° C. in a humidified incubator. At time 0 and after 60 minutes, 100 μL of acetonitrile containing the internal standard (0.2 μM of metoprolol and 0.4 μM of diclofenac) were added to stop the reaction.
(§3) The samples were centrifuged before analysis. The HPLC/MS/MS analysis was performed using an electrospray ion source in positive ionization and SRM (Single Reaction Mode). The chromatographic conditions entail the use of an XDB-C18 column (2.1×50 mm, Agilent) and a gradient from 5% to 91% of acetonitrile in water containing 0.1% formic acid (total runtime equal to 6 minutes); the flow rate was 0.5 ml/minute.
(§4) The areas of the peaks for the test compounds were integrated and the results expressed as the analyte area/internal standard (PAR) area ratio. For each time, two samples were analysed and the mean value calculated. The percentage of the value of remaining compound was calculated as: % unmetabolized compound=100*(mean PARTfinal/mean PART0).

The nature of data set [2]: In vivo bioavailability, oral cassette dosing. Particulars: oral 5 mg/kg; for Cmax / Tmax / AUC(0-t): plasma; for AUC(0-t): first seven hours, read-out: AUC0-7. The procedure:
This test allowed evaluation of the in vivo bioavailability of the compounds of the invention, thus making it possible to evaluate and compare the pharmacokinetic profile of the test compounds.
The tests were performed using the cassette method, i.e. by administering orally several products simultaneously to the same animal, at a dose of 5 mg/kg. The products were suspended in methylcellulose (MTC). The treated animals were catheterized for the serial collection of blood samples performed by means of an automatic sampling system. The plasmatic concentrations of the products were measured by HPLC/MS/MS. The profiles of the plasmatic concentrations over time made it possible to evaluate the relative bioavailability of the test products in terms of rate (tmax and Cmax) and […] (AUC). The slope of the curve in the end portion also allowed a comparative evaluation of the rate of elimination of the compounds from the plasma, the slower the rate, the lower the slope. Three animals were treated for each combination of compounds.
The results, expressed as the Cmax, i.e. as the maximum concentration of drug reached in the plasma, Tmax, i.e. the time required to reach the maximum drug concentration in the plasma, and AUC0-7, i.e. the area under the curve of the plasmatic concentrations of drug over time, measured in the first seven hours after administration, are given in Table 5.

Data set [3] in a line: in vitro. Particulars: human, Caco-2, pH 7.4. On the procedure: This test allows evaluation of the amount absorbed by the intestinal barrier of the compounds of the invention and of the comparative compounds using the Caco-2 cell line as an in vitro model of intestinal barrier. The permeability test on Caco-2 cells represents an in vitro system approved for predicting and estimating the in vivo intestinal absorption of a drug. When the Caco-2 cells are cultured on a porous filter for about 21 days, they have the capacity to differentiate into enterocytes.
The compounds undergoing the test were diluted from a 10 mM stock solution in HBSS to a final concentration of 10 μM. The system consisted of a confluent cellular monolayer in culture for 21-28 days.
Each compound was tested in triplicate, bidirectionally, at pH 7.4, from the apical to the basolateral compartment (A→B) and from the basolateral to the apical compartment (B→A).
The samples collected at the given time were analysed by HPLC-MS/MS, using an electrospray ion source in positive ionization and SRM (Single Reaction Mode). The chromatographic conditions entailed the use of an XDB-C18 column (2.1×50 mm, Agilent) with a gradient from 5% to 91% of acetonitrile in water containing 0.1% formic acid (total runtime equal to 6.5 minutes) and a flow rate of 0.5 ml/minute. Metoprolol was used as the internal standard.
The concentration data were used to calculate the apparent permeability values (Papp), and the mean and standard deviation of the Papp were calculated.
The flux ratio was calculated as Papp(B→A)/Papp(A→B). The recovery percentage was calculated as: (amount in the receiving compartment+amount in the donor compartment)/nominal amount
The area of the peaks of the test compounds were integrated and the results were expressed as the analyte area/internal standard area ratio and corrected for the dilution factor used during the preparation of the sample. The apparent permeability coefficients were calculated using the following equation: […]
in which: • VA volume in the receiving well (0.25 mL for the test from A→B, 0.075 mL for the test from B→A) • Area area of the membrane surface (0.11 cm^2) • Time total transport time (3600 seconds)

Data set [4] deals with production of PGE2. In words: Inhibition of PGE2 production in IL-1β-stimulated A549 cells (EIA). It counts as cell-based. The following applies: Homo sapiens, IL-1β 1 ng/ml, 22 hours. The source says:
(§5) This test allows evaluation of the inhibitory capacity on the production of the PGE2 and the selectivity relative to the production of the PGF2α.
(§6) The cell line A549, human pulmonary adenocarcinoma, was used, which is particularly sensitive to stimulation with pro-inflammatory cytokines, for instance IL-1β, and, in response to this stimulation, is particularly active in the production and release of two prostanoids: PGE2 and PGF2α (Thoren S. Jakobsson P-J, 2000).
(§7) The cells were stimulated with IL-1β (1 ng/ml) and simultaneously treated with the test compound for 22 hours in an appropriate culture medium (DMEM—Dulbecco's Modified Eagle's Medium) supplemented with 5% foetal calf serum and L-glutamine (4 mM final) in an incubator at 37° C. and at a CO2 concentration of 5%.
(§8) After the incubation, the amount of PGE2 and PGF2α produced and released into the supernatant were assayed using an EIA kit (produced and sold by Cayman Chemicals, Ann Arbor, Mich., USA).
(§9) The comparative compound used was indomethacin at a concentration of 10 nM (Sigma-Aldrich), a non-steroidal anti-inflammatory drug that inhibits in equal measure both PGE2 and PGF2α.
(§10) The results, expressed as the IC50 values, i.e. as the concentration of compound that inhibits 50% of the production of PGE2 and of PGF2α relative to the cells that have been stimulated, but not treated with the same compound, are given in Table 2. The inactivity or the reduced activity of the compound on the biosynthesis of PGF2α is an indication of selectivity towards the production of PGE2 and thus of selective inhibition of mPGES-1.

Data set [5] can be described thus: Metabolic stability in rat hepatic microsomes. Particulars: Sprague-Dawley, rat, microsomes, 1 h, 1 μM, pH 7.4. The procedure: as §1, §2, §3, §4
Data set [6] concerns mice. In words: Acetic acid-induced writhing in mice. The following applies: for No. of writhes: 20 minutes after acetic acid; for % of inhibition: writhes vs vehicle. It counts as in vivo. The procedure: The test compound was evaluated in the model of acetic acid-induced writhing in mice (Stock J. L. et al., J. Clin. Inv. 2001, 107: 325-331). This test allows evaluation of the antinociceptive activity of the compounds of the invention in a model of inflammatory pain.
Female CD-1 mice weighing 25-30 g were used for the test. The animals were treated intraperitoneally with the test compound (0.1-10 mg/kg) suspended in methylcellulose (MTC). The control animals were treated with the vehicle alone (MTC) via the same route.
Half an hour after the treatment, an intraperitoneal injection of acetic acid (0.7% v/v in physiological saline, 16 μl/g of body weight) was given to the animals to induce inflammatory pain and to check the effects of the test compound on the nociceptive response.
Immediately after the administration of acetic acid and for the following 20 minutes the number of writhes was measured, which represents the parameter for evaluation of the nociceptive response.

For data set [7], the system named is production of PGF2α. In words: Inhibition of PGF2α production in IL-1β-stimulated A549 cells (EIA). It counts as cell-based. Particulars: Homo sapiens, IL-1β 1 ng/ml, 22 hours.
Source text: as §5, §6, §7, §8, §9, §10

The molecule `O=C(Nc1ccc2c(c1)c1ccccc1n2CCO)c1ccccc1C(F)(F)F` [Compound 1, N-[9-(2-hydroxyethyl)-9H-carbazol-3-yl]-2-(trifluoromethyl)benzamide] came in with a melting point of 176 to 177 °C. Further, the “% unmetabolized compound, Man” value in data set [1] turned out to be 81%. In addition, in data set [2], the “bioavailability / absorption in words” value is on record as “good bioavailability characteristics”, the Cmax was determined as 1200 ng/mL, the Tmax is 1.5 h and the AUC(0-t) turned out to be 5750 ng·h/mL. The Papp at 3600 seconds, 10 μM in data set [3] is above 20 ×10⁻⁶ cm/s. The molecule also yielded an IC50 in data set [4] of 2900 nM. Further, in data set [5], the “% unmetabolized compound, Rat” value was 58%. Besides, in data set [6] (0.1 mg/kg intraperitoneally), the No. of writhes was 38.4 ± 3.99 and the “% of inhibition” value came to 21%. Moreover, in data set [6] (1 mg/kg intraperitoneally), the No. of writhes amounted to 31.5 ± 5.72 and the “% of inhibition” value is 35%. In data set [6] (10 mg/kg intraperitoneally), the No. of writhes is 12.8 ± 2.46 and the “% of inhibition” value is on record as 74%. The same molecule gave an IC50 in data set [7] above 100000 nM.

On to `CC(C)(O)Cn1c2ccccc2c2cc(NC(=O)c3ccccc3C(F)(F)F)ccc21` [Compound 2, N-[9-(2-hydroxy-2-methylpropyl)-9H-carbazol-3-yl]-2-(trifluoro-methyl)benzamide], for which the melting point is 179 to 181 °C. Also, in data set [1], the “% unmetabolized compound, Man” value was 82%. Moreover, in data set [2], the “bioavailability / absorption in words” value is recorded as “good bioavailability characteristics”, the Cmax stood at 984 ng/mL, the Tmax was 4.3 h and the AUC(0-t) was 5400 ng·h/mL. For the same molecule, the Papp at 3600 seconds, 10 μM in data set [3] is above 20 ×10⁻⁶ cm/s. The same molecule returned an IC50 in data set [4] of 2300 nM. In addition, the “% unmetabolized compound, Rat” value in data set [5] was found to be 68%. Further, the IC50 in data set [7] was above 100000 nM.

In turn, `CC(C)(O)CCn1c2ccccc2c2cc(NC(=O)c3ccccc3C(F)(F)F)ccc21` [Compound 3, N-[9-(3-hydroxy-3-methylbutyl)-9H-carbazol-3-yl]-2-(trifluoromethyl)benzamide] registered a melting point of 188 to 189 °C. Besides, in data set [1], the “% unmetabolized compound, Man” value was found to be 77%. In data set [2], the “bioavailability / absorption in words” value was “good bioavailability characteristics”, the Cmax came out at 457 ng/mL, the Tmax was found to be 1.8 h and the AUC(0-t) came out at 2670 ng·h/mL. Further, in data set [3], the Papp at 3600 seconds, 10 μM was above 20 ×10⁻⁶ cm/s. Also, 1400 nM corresponded to half-maximal inhibition in data set [4] (IC50). Also, the “% unmetabolized compound, Rat” value in data set [5] stood at 65%. Moreover, in data set [7], the IC50 was above 100000 nM.
